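48-hour exposure; five concentrations; linearly interpolated endpoints. TGI is the concentration that stops growth completely.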
Assays:
Assay in all cases: NCI tumour cell line growth inhibition, 48 h
SN12C renal = system: SN12C renal
HCT-15 colon = system: HCT-15 colon
HOP-92 NSCLC = system: HOP-92 NSCLC
U251 CNS = system: U251 CNS
SF-295 CNS = system: SF-295 CNS
DMS 273 small cell lung = system: DMS 273 small cell lung
NCI-H460 lung = system: NCI-H460 lung
NCI-H522 lung = system: NCI-H522 lung
SW-620 colon = system: SW-620 colon
OVCAR-5 ovarian = system: OVCAR-5 ovarian
CAKI-1 renal = system: CAKI-1 renal
UACC-62 melanoma = system: UACC-62 melanoma
LOX IMVI melanoma = system: LOX IMVI melanoma
HCC-2998 colon = system: HCC-2998 colon
OVCAR-3 ovarian = system: OVCAR-3 ovarian
KM12 colon = system: KM12 colon
SK-MEL-28 melanoma = system: SK-MEL-28 melanoma
K-562 leukemia = system: K-562 leukemia
CCRF-CEM leukemia = system: CCRF-CEM leukemia
UO-31 renal = system: UO-31 renal
DMS 114 small cell lung = system: DMS 114 small cell lung
HL-60(TB) leukemia = system: HL-60(TB) leukemia
KM20L2 colon = system: KM20L2 colon
MALME-3M melanoma = system: MALME-3M melanoma
HOP-62 NSCLC = system: HOP-62 NSCLC
NCI-H226 lung = system: NCI-H226 lung
OVCAR-8 ovarian = system: OVCAR-8 ovarian
OVCAR-4 ovarian = system: OVCAR-4 ovarian
TK-10 renal = system: TK-10 renal
IGROV1 ovarian = system: IGROV1 ovarian
SNB-19 CNS = system: SNB-19 CNS
SK-OV-3 ovarian = system: SK-OV-3 ovarian
DLD-1 colon = system: DLD-1 colon
A549 NSCLC = system: A549 NSCLC
M14 melanoma = system: M14 melanoma
UACC-257 melanoma = system: UACC-257 melanoma
M19-MEL melanoma = system: M19-MEL melanoma
RXF-631 renal = system: RXF-631 renal
SNB-75 CNS = system: SNB-75 CNS
SR leukemia = system: SR leukemia
RPMI-8226 leukemia = system: RPMI-8226 leukemia
SF-539 CNS = system: SF-539 CNS
NCI-H23 lung = system: NCI-H23 lung
COLO 205 colon = system: COLO 205 colon
A498 renal = system: A498 renal
EKVX NSCLC = system: EKVX NSCLC
LXFL 529 NSCLC = system: LXFL 529 NSCLC
786-0 renal = system: 786-0 renal
HCT-116 colon = system: HCT-116 colon
HOP-18 NSCLC = system: HOP-18 NSCLC
SK-MEL-2 melanoma = system: SK-MEL-2 melanoma
XF 498 CNS = system: XF 498 CNS
HT29 colon = system: HT29 colon
SK-MEL-5 melanoma = system: SK-MEL-5 melanoma
ACHN renal = system: ACHN renal
RXF 393 renal = system: RXF 393 renal
SF-268 CNS = system: SF-268 CNS
SNB-78 CNS = system: SNB-78 CNS
MOLT-4 leukemia = system: MOLT-4 leukemia

## CC1NOC(=O)C1N=Nc1ccccc1Br (stereo not given)
SN12C renal
  TGI: 59.5 µM
HCT-15 colon
  TGI: 84.8 µM
HOP-92 NSCLC
  TGI: 52.2 µM
U251 CNS
  TGI: 46.1 µM
SF-295 CNS
  TGI: > 100 µM
DMS 273 small cell lung
  TGI: > 100 µM
NCI-H460 lung
  TGI: 57.9 µM
NCI-H522 lung
  TGI: 33.8 µM
SW-620 colon
  TGI: 30.9 µM
OVCAR-5 ovarian
  TGI: > 100 µM
CAKI-1 renal
  TGI: 38.4 µM
UACC-62 melanoma
  TGI: 48.1 µM
LOX IMVI melanoma
  TGI: > 100 µM
HCC-2998 colon
  TGI: > 100 µM
OVCAR-3 ovarian
  TGI: 43.8 µM
KM12 colon
  TGI: 44.8 µM
SK-MEL-28 melanoma
  TGI: 79.8 µM
K-562 leukemia
  TGI: 52.8 µM
CCRF-CEM leukemia
  TGI: 74.2 µM
UO-31 renal
  TGI: 33.1 µM
DMS 114 small cell lung
  TGI: 35.7 µM
HL-60(TB) leukemia
  TGI: 40.8 µM
KM20L2 colon
  TGI: > 100 µM
MALME-3M melanoma
  TGI: 50.5 µM
HOP-62 NSCLC
  TGI: > 100 µM
NCI-H226 lung
  TGI: 81.2 µM
OVCAR-8 ovarian
  TGI: 44.9 µM
OVCAR-4 ovarian
  TGI: > 100 µM
TK-10 renal
  TGI: 57.4 µM
IGROV1 ovarian
  TGI: > 100 µM
SNB-19 CNS
  TGI: > 100 µM
SK-OV-3 ovarian
  TGI: 99 µM
DLD-1 colon
  TGI: > 100 µM
A549 NSCLC
  TGI: 69 µM
M14 melanoma
  TGI: 43.3 µM
UACC-257 melanoma
  TGI: 44 µM
M19-MEL melanoma
  TGI: 35.8 µM
RXF-631 renal
  TGI: > 100 µM
SNB-75 CNS
  TGI: 64 µM
SR leukemia
  TGI: 58.2 µM
RPMI-8226 leukemia
  TGI: 91.6 µM
SF-539 CNS
  TGI: 51.2 µM
NCI-H23 lung
  TGI: 49.1 µM
COLO 205 colon
  TGI: 35.7 µM
A498 renal
  TGI: 51.3 µM
EKVX NSCLC
  TGI: 80.3 µM
LXFL 529 NSCLC
  TGI: 31.2 µM
786-0 renal
  TGI: 39.8 µM
HCT-116 colon
  TGI: 92.8 µM
HOP-18 NSCLC
  TGI: > 100 µM
SK-MEL-2 melanoma
  TGI: 36.7 µM
XF 498 CNS
  TGI: 40 µM
HT29 colon
  TGI: > 100 µM
SK-MEL-5 melanoma
  TGI: 29.1 µM
ACHN renal
  TGI: > 100 µM
RXF 393 renal
  TGI: 32 µM
SF-268 CNS
  TGI: 66 µM
SNB-78 CNS
  TGI: 88.8 µM
MOLT-4 leukemia
  TGI: 67 µM

## COC(=O)C(CCCCCCCC(C(=O)OC)c1nc2n(c1O)C(=N)N=N2)c1nc2n(c1O)C(=N)N=N2 (stereo not given)
SN12C renal
  TGI: > 100 µM
HCT-15 colon
  TGI: > 100 µM
HOP-92 NSCLC
  TGI: > 100 µM
U251 CNS
  TGI: > 100 µM
SF-295 CNS
  TGI: > 100 µM
DMS 273 small cell lung
  TGI: > 100 µM
NCI-H460 lung
  TGI: > 100 µM
NCI-H522 lung
  TGI: > 100 µM
SW-620 colon
  TGI: > 100 µM
OVCAR-5 ovarian
  TGI: > 100 µM
CAKI-1 renal
  TGI: > 100 µM
UACC-62 melanoma
  TGI: > 100 µM
LOX IMVI melanoma
  TGI: > 100 µM
HCC-2998 colon
  TGI: > 100 µM
OVCAR-3 ovarian
  TGI: > 100 µM
KM12 colon
  TGI: > 100 µM
SK-MEL-28 melanoma
  TGI: > 100 µM
CCRF-CEM leukemia
  TGI: > 100 µM
UO-31 renal
  TGI: > 100 µM
DMS 114 small cell lung
  TGI: > 100 µM
HL-60(TB) leukemia
  TGI: > 100 µM
KM20L2 colon
  TGI: > 100 µM
MALME-3M melanoma
  TGI: > 100 µM
HOP-62 NSCLC
  TGI: > 100 µM
NCI-H226 lung
  TGI: > 100 µM
OVCAR-8 ovarian
  TGI: > 100 µM
OVCAR-4 ovarian
  TGI: > 100 µM
TK-10 renal
  TGI: > 100 µM
IGROV1 ovarian
  TGI: > 100 µM
SNB-19 CNS
  TGI: > 100 µM
SK-OV-3 ovarian
  TGI: > 100 µM
DLD-1 colon
  TGI: > 100 µM
A549 NSCLC
  TGI: > 100 µM
M14 melanoma
  TGI: > 100 µM
UACC-257 melanoma
  TGI: > 100 µM
M19-MEL melanoma
  TGI: > 68.3 µM
RXF-631 renal
  TGI: > 100 µM
SNB-75 CNS
  TGI: > 85.6 µM
SR leukemia
  TGI: > 100 µM
RPMI-8226 leukemia
  TGI: > 100 µM
SF-539 CNS
  TGI: > 100 µM
NCI-H23 lung
  TGI: > 100 µM
COLO 205 colon
  TGI: > 100 µM
A498 renal
  TGI: > 100 µM
EKVX NSCLC
  TGI: > 100 µM
LXFL 529 NSCLC
  TGI: > 100 µM
786-0 renal
  TGI: > 100 µM
HCT-116 colon
  TGI: > 100 µM
HOP-18 NSCLC
  TGI: > 100 µM
SK-MEL-2 melanoma
  TGI: > 100 µM
XF 498 CNS
  TGI: > 100 µM
HT29 colon
  TGI: > 100 µM
SK-MEL-5 melanoma
  TGI: > 100 µM
ACHN renal
  TGI: > 100 µM
RXF 393 renal
  TGI: > 100 µM
SF-268 CNS
  TGI: > 100 µM
SNB-78 CNS
  TGI: > 100 µM
MOLT-4 leukemia
  TGI: > 100 µM

## CN(C)CCCN1N=Nc2cccc3cccc1c23
SN12C renal
  TGI: > 100 µM
HCT-15 colon
  TGI: > 57.5 µM
HOP-92 NSCLC
  TGI: > 100 µM
U251 CNS
  TGI: > 100 µM
SF-295 CNS
  TGI: > 100 µM
DMS 273 small cell lung
  TGI: 39.8 µM
NCI-H460 lung
  TGI: > 89.1 µM
NCI-H522 lung
  TGI: > 100 µM
SW-620 colon
  TGI: > 54.4 µM
OVCAR-5 ovarian
  TGI: > 100 µM
CAKI-1 renal
  TGI: > 100 µM
UACC-62 melanoma
  TGI: > 100 µM
LOX IMVI melanoma
  TGI: > 100 µM
HCC-2998 colon
  TGI: > 100 µM
OVCAR-3 ovarian
  TGI: > 100 µM
KM12 colon
  TGI: > 100 µM
SK-MEL-28 melanoma
  TGI: > 100 µM
K-562 leukemia
  TGI: > 65.1 µM
CCRF-CEM leukemia
  TGI: > 63.4 µM
UO-31 renal
  TGI: > 100 µM
DMS 114 small cell lung
  TGI: > 57.9 µM
HL-60(TB) leukemia
  TGI: > 63.1 µM
KM20L2 colon
  TGI: > 100 µM
MALME-3M melanoma
  TGI: > 100 µM
HOP-62 NSCLC
  TGI: > 100 µM
NCI-H226 lung
  TGI: > 100 µM
OVCAR-8 ovarian
  TGI: > 100 µM
OVCAR-4 ovarian
  TGI: 58 µM
TK-10 renal
  TGI: > 100 µM
IGROV1 ovarian
  TGI: > 100 µM
SNB-19 CNS
  TGI: > 100 µM
SK-OV-3 ovarian
  TGI: > 100 µM
DLD-1 colon
  TGI: > 100 µM
A549 NSCLC
  TGI: > 100 µM
M14 melanoma
  TGI: > 63.6 µM
UACC-257 melanoma
  TGI: > 100 µM
M19-MEL melanoma
  TGI: > 95.3 µM
RXF-631 renal
  TGI: > 100 µM
SNB-75 CNS
  TGI: > 100 µM
SR leukemia
  TGI: 51.4 µM
RPMI-8226 leukemia
  TGI: > 69.3 µM
SF-539 CNS
  TGI: > 100 µM
NCI-H23 lung
  TGI: > 100 µM
COLO 205 colon
  TGI: > 70.2 µM
A498 renal
  TGI: > 100 µM
EKVX NSCLC
  TGI: > 100 µM
LXFL 529 NSCLC
  TGI: > 87 µM
786-0 renal
  TGI: 38.2 µM
HCT-116 colon
  TGI: > 64.6 µM
HOP-18 NSCLC
  TGI: > 100 µM
SK-MEL-2 melanoma
  TGI: > 100 µM
XF 498 CNS
  TGI: > 100 µM
HT29 colon
  TGI: > 100 µM
SK-MEL-5 melanoma
  TGI: > 100 µM
ACHN renal
  TGI: > 100 µM
SF-268 CNS
  TGI: > 100 µM
SNB-78 CNS
  TGI: > 100 µM
MOLT-4 leukemia
  TGI: > 77.3 µM
